Here are results for eight molecules from patent US20100261736A1, “SUBSTITUTED BICYCLIC HETEROARYL COMPOUNDS FOR THE TREATMENT OF CARDIOVASCULAR DISEASE” (priority 2007, published 2010).

Series [1] deals with T1, Prostacyclin receptors (IP receptors) of human thrombocyte membranes (Homo sapiens, UniProt P43119).
T1 construct: Thrombocyte membranes are obtained by centrifuging 50 ml of human blood
Description: Binding to prostacyclin receptors (IP receptors) of human thrombocyte membranes, 3H-Iloprost displacement. To be noted: 3 nM 3H-Iloprost, 60 min, room temperature. How it is done: B-1. Studies of Binding to Prostacyclin Receptors (IP Receptors) of Human Thrombocyte Membranes
Thrombocyte membranes are obtained by centrifuging 50 ml of human blood (Buffy coats with CDP Stabilizer, from Maco Pharma, Langen) for 20 min at 160×g. Remove the supernatant (platelet-rich plasma, PRP) and then centrifuge again at 2000×g for 10 min at room temperature. Resuspend the sediment in 50 mM tris(hydroxymethyl)aminomethane, which has been adjusted to a pH of 7.4 with 1 N hydrochloric acid, and store at −20° C. overnight. On the next day, centrifuge the suspension at 80 000×g and 4° C. for 30 min. Discard the supernatant. Resuspend the sediment in 50 mM tris(hydroxymethyl)aminomethane/hydrochloric acid, 0.25 mM ethylene diamine tetraacetic acid (EDTA), pH 7.4, and then centrifuge once again at 80 000×g and 4° C. for 30 min. Take up the membrane sediment in binding buffer (50 mM tris(hydroxymethyl)-aminomethane/hydrochloric acid, 5 mM magnesium chloride, pH 7.4) and store at −70° C. until the binding test.
For the binding test, incubate 3 nM ^3H-Iloprost (592 GBq/mmol, from AmershamBioscience) for 60 min with 300-1000 μg/ml of human thrombocyte membranes per charge (max. 0.2 ml) in the presence of the test substances at room temperature. After stopping, add cold binding buffer to the membranes and wash with 0.1% bovine serum albumin. After adding Ultima Gold Scintillator, quantify the radioactivity bound to the membranes using a scintillation counter. The nonspecific binding is defined as radioactivity in the presence of 1 μM Iloprost (from Cayman Chemical, Ann Arbor) and is as a rule <25% of the bound total radioactivity. The binding data (IC50 values) are determined using the program GraphPad Prism Version 3.02.

The conditions of series [2]: non-enzymatic transformation to inactive metabolite 6-keto-prostaglandin-F1alpha; cited from earlier work.

T1 sequence (P43119 whole entry): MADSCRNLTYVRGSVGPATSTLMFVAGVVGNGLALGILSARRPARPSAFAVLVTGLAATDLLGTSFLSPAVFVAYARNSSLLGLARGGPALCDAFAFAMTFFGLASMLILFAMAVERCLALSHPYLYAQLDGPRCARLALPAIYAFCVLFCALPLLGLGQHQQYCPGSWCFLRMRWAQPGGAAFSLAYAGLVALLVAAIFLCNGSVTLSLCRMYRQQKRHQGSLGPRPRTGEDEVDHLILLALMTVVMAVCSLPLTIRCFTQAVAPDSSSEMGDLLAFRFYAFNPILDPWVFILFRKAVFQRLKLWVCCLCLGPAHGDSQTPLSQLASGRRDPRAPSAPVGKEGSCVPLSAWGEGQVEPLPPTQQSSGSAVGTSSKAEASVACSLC

Broadly, the IC50 is the midpoint of a concentration-inhibition curve. A lower IC50 goes with higher potency. With `CCc1ccc(-c2c(-c3ccccc3)oc3nccc(NCC(C)(C)COCCC(=O)O)c23)cc1` [Example 21, 3-(3-{[3-(4-Ethylphenyl)-2-phenylfuro[2,3-b]pyridin-4-yl]amino}-2,2-dimethylpropoxy)-propanoic acid], the IC50 in series [1] is 35 nM.
Still for that read-out and setting: the value for `COc1ccc(-c2c(-c3ccccc3)[nH]c3ncnc(O[C@H](C)CCCCC(=O)O)c23)cc1` [Example 5, (6R)-6-{[5-(4-Methoxyphenyl)-6-phenyl-7H-pyrrolo[2,3-d]pyrimidin-4-yl]oxy}heptanoic acid] was 39 nM.
As to `CCCCC[C@H](O)/C=C/[C@@H]1[C@H]2C/C(=C/CCCC(=O)O)O[C@H]2C[C@H]1O` [PGI2], the half-life result in series [2] was “approx. 3 minutes”.
`CCc1ccc(-c2c(-c3ccccc3)sc3ncnc(O[C@H](C)CCCCC(=O)O)c23)cc1` [Example 9, (6R)-6-{[5-(4-ethylphenyl)-6-phenylthieno[2,3-d]pyrimidin-4-yl]oxy}heptanoic acid] gave an IC50 in series [1] of 208 nM.
Regarding `CCc1ccc(-c2c(-c3ccccc3)oc3nccc(OCCOCCC(=O)O)c23)cc1` [Example 29], the IC50 in series [1] amounted to 1700 nM.
In turn, `COc1ccc(-c2c(-c3ccccc3)oc3cccc(OCCCCCC(=O)O)c23)cc1` [Example 12, 6-{[3-(4-Methoxyphenyl)-2-phenyl-1-benzofuran-4-yl]oxy}hexanoic acid] displayed an IC50 in series [1] of 984 nM.
For `COc1ccc(-c2c(-c3ccccc3)oc3ccnc(NCC(C)(C)COCC(=O)O)c23)cc1` [Example 19, (3-{[3-(4-Methoxyphenyl)-2-phenylfuro[3,2-c]pyridin-4-yl]amino}-2,2-dimethylpropoxy)acetic acid], in series [1], the IC50 stood at 98 nM.
Consider `CCc1ccc(-c2c(-c3ccccc3)oc3nccc(O[C@H](C)CCCCC(=O)O)c23)cc1` [Example 28, (6R)-6-{[3-(4-ethylphenyl)-2-phenylfuro[2,3-b]pyridin-4-yl]oxy}heptanoic acid], for which the IC50 in series [1] was 39 nM. Compared with the last molecule, the IC50 is about 2.5-fold lower.
